The values below come from ChEMBL document CHEMBL3044945, “Synthesis of 1,3,5-trisubstituted pyrazoline nucleus containing compounds and screening for antimicrobial activity” (2012).

Type in all cases: functional
The subject of one experiment is Pseudomonas aeruginosa. Nature of the experiment: Antibacterial activity against Pseudomonas aeruginosa MTCC 424 at 10 ug/ml after 48 hr by cup-plate method. Conditions: MTCC 424, 48 h, read-out: DIZ.
For another experiment, the system named is Bacillus pumilus. Kind of experiment: Antibacterial activity against Bacillus pumilus MTCC 1456 at 10 ug/ml after 48 hr by cup-plate method. Conditions: MTCC 1456, 48 h, read-out: DIZ.
The subject of the next experiment is Bacillus subtilis. Kind of experiment: Antibacterial activity against Bacillus subtilis MTCC 441 at 10 ug/ml after 48 hr by cup-plate method. Conditions: MTCC 441, 48 h, read-out: DIZ.
Another experiment deals with Micrococcus luteus. Nature of the experiment: Antibacterial activity against Micrococcus luteus MTCC 1538 at 10 ug/ml after 48 hr by cup-plate method. Conditions: MTCC 1538, 48 h, read-out: DIZ.
The next experiment concerns Pseudomonas fluorescens. Nature of the experiment: Antibacterial activity against Pseudomonas fluorescens MTCC 2421 at 10 ug/ml after 48 hr by cup-plate method. Conditions: MTCC 2421, 48 h, read-out: DIZ.
The test system of a further experiment is Escherichia coli. Kind of experiment: Antibacterial activity against Escherichia coli MTCC 1573 at 10 ug/ml after 48 hr by cup-plate method. To be noted: MTCC 1573, 48 h, read-out: DIZ.
A further experiment relates to Staphylococcus aureus. Nature of the experiment: Antibacterial activity against Staphylococcus aureus MTCC 1430 at 10 ug/ml after 48 hr by cup-plate method. To be noted: MTCC 1430, 48 h, read-out: DIZ.

With `CCn1cc(C(=O)O)c(=O)c2cc(F)c(N3CCNCC3)cc21` [NORFLOXACIN], the zone of inhibition at 10 µg/mL with Pseudomonas aeruginosa was found to be 24 mm; in the experiment on Bacillus pumilus, 27 mm; in the experiment on Bacillus subtilis, 25 mm; in the experiment with Micrococcus luteus it was 32 mm; in the experiment with Pseudomonas fluorescens it was 27 mm; in the experiment with Escherichia coli, 27 mm. Also, the zone of inhibition at 10 µg/mL in the experiment on Staphylococcus aureus stood at 28 mm.
